{"source": "paper PMC10147685", "about": "“Safety, tolerability, and pharmacokinetics of Aurora kinase B inhibitor AZD2811: a phase 1 dose-finding study in patients with advanced solid tumours” (British Journal of Cancer, 2023)", "key": {"[1]": {"test": "Pharmacokinetics: AZD2811 whole blood concentrations and urine excretion", "type": "in vivo, human", "conditions": "for Cmax / AUC(0-t) / Tmax: human, whole blood; for Cmax: read-out: Geometric mean Cmax (CV%); for AUC(0-t): compartmental PK analysis, read-out: Geometric mean AUC(0–504h) (CV%); for Tmax: read-out: Median tmax (range)", "method": "(§1) AEs were assessed throughout the treatment and follow-up periods. Patients were followed until all treatment-related toxicity resolved, or for at least 30 days post-study drug discontinuation. AEs were graded according to CTCAE v4.03. Venous blood samples (4 mL) for measurement of AZD2811 concentrations were collected at Cycle 1 Days 1–6, 8, 15, 16, and 22 and Cycle 2 Day 1 in Cohorts 1–6; Cycle 1 Days 1, 4, 8, 12, and 22 in Cohort 7; Cycle 1 Days 1, 4, 8, 12, and 15 and Cycle 2 Day 1 in Cohorts 8–12. Tumour imaging assessments using computed tomography or magnetic resonance imaging of the chest and abdomen/pelvis were performed at screening (≤28 days prior to initiation of treatment), and then every 2 cycles.\n(§2) The safety analysis set comprised all patients who received at least one dose of AZD2811. The PK analysis set comprised all patients who received at least one dose of AZD2811 with at least one reportable concentration. […] There was no formal statistical analysis of safety and efficacy data. The numbers of patients experiencing each AE were summarised by Medical Dictionary for Regulatory Activities (MedDRA) version 22.1 system organ class, MedDRA preferred term, and CTCAE grade. The ORR and best overall response based on RECIST 1.1 were summarised. AZD2811 blood concentrations and derived PK parameters were summarised by dose regimen. Summary statistics were calculated for area under the curve (AUC), time of maximum concentration (tmax), and maximum concentration after a single dose (Cmax).\nCompartmental PK analysis was used to derive AUC from time zero to the time of the last planned sampling time in the study (AUC0–504h). Cmax and tmax were derived using the standard non-compartmental approach. PK parameters of Cmax, tmax, and AUC0–504h are summarised by cohort in Supplementary Table 2, and geometric mean AZD2811 whole blood concentrations are presented by cohort in Fig. 3. Maximum AZD2811 whole blood concentrations were observed after the end of infusions (Days 1 and 4). […] There was evidence of a second and third phase, 96 and 264 h post-dose. […] Urine samples were only collected in the first four cohorts, and AZD2811 concentrations were below the limit of quantification in the majority (>80%). Consequently, only the total amount of unchanged AZD2811 excreted into urine over 0–72 h was calculated; the maximum amount excreted was 294.40 µg for a patient in Cohort 4 (51 mg AZD2811), which represented <1% of the dose.\nFig. 3 Geometric mean (±geoSD) AZD2811 whole blood concentrations. a For days 1 and 4 regimens and b for day 1 only regimens. In Cohorts 1–6, PK blood samples (4 mL per sample) for determination of AZD2811 blood concentrations were collected from all patients on Cycle 1 Day 1 pre-dose, and at 1, 2, 4, 6, 8, 24, and 48 h (±15 min for each time point) from the start of infusion, then on Cycle 1 Day 4 pre-dose, and at 1, 2, 4, 6, 8, and 24 h (day 5), 48 h (day 6), 96 h (day 8) from the start of infusion, and in the morning on days 15, 16, and 22. A Cycle 2 Day 1 pre-dose sample and a 2-h sample (end of infusion) were also obtained. In Cohorts 7–12, PK blood samples were collected from all patients on Cycle 1 Day 1 pre-dose, and at 1, 2, 4, 6, and 8 h from the start of infusion, and in the morning on Days 4, 8, 12, and 22. G-CSF granulocyte colony stimulating factor, PK pharmacokinetics, Q3W every 3 weeks, Q4W every 4 weeks."}, "advanced solid tumours": {"system": "advanced solid tumours", "test": "Preliminary antitumour activity (RECIST v1.1 best overall response)", "type": "in vivo, human", "method": "as §1\nThe primary objective was to evaluate the safety profile and determine the MTD/RP2D and schedule of AZD2811 by assessing the incidence of DLTs, AEs, and abnormal laboratory test results. Secondary objectives were evaluation of PK parameters and preliminary assessment of antitumour activity, including objective response rate (ORR [complete response + partial response (CR + PR)]) based on RECIST v1.1, and incidence of best overall response, stable disease (SD) and progressive disease (PD).\nas §2"}, "[2]": {"system": "animal models of SCLC and diffuse large B-cell lymphoma (DLBCL)", "parameters": "method as in PMID 26865565, PMID 30872381", "conditions": "at half the dose intensity of barasertib; cited from earlier work"}, "[3]": {"conditions": "intravenous, 15 mg, Cohort 1: 15 mg, Days 1 and 4, 28-day cycles, no G-CSF, N = 3"}, "[4]": {"conditions": "intravenous, 25 mg, Cohort 2: 25 mg, Days 1 and 4, 28-day cycles, no G-CSF, N = 3"}, "[5]": {"conditions": "intravenous, 38 mg, Cohort 3: 38 mg, Days 1 and 4, 28-day cycles, no G-CSF, N = 3"}, "[6]": {"conditions": "intravenous, 51 mg, Cohort 4: 51 mg, Days 1 and 4, 28-day cycles, no G-CSF, N = 3"}, "[7]": {"conditions": "intravenous, 100 mg, Cohort 5: 100 mg, Days 1 and 4, 28-day cycles, no G-CSF, N = 3"}, "[8]": {"conditions": "intravenous, 200 mg, Cohort 8: 200 mg, Day 1, 21-day cycles, optional G-CSF, N = 3"}, "[9]": {"conditions": "intravenous, 200 mg, Cohort 6: 200 mg, Days 1 and 4, 28-day cycles, no G-CSF, N = 9"}, "[10]": {"conditions": "intravenous, 200 mg, Cohort 7: 200 mg, Day 1, 28-day cycles, optional G-CSF, N = 4"}, "[11]": {"conditions": "intravenous, 400 mg, Cohort 9: 400 mg, Day 1, 21-day cycles, optional G-CSF, N = 7"}, "[12]": {"conditions": "intravenous, 500 mg, Cohort 12: 500 mg, Day 1, 21-day cycles, mandatory G-CSF, N = 6"}, "[13]": {"conditions": "intravenous, 600 mg, Cohort 11: 600 mg, Day 1, 21-day cycles, mandatory G-CSF, N = 3"}, "[14]": {"conditions": "over 0–72 h, a patient in Cohort 4 (51 mg AZD2811)"}}, "note": "Where two headings read alike, the source gives them in different places.", "data": [{"compound": "CCN(CCO)CCCOc1ccc2c(Nc3cc(CC(=O)Nc4cccc(F)c4)n[nH]3)ncnc2c1", "note": "[AZD2811, AZD1152 hydroxyquinazoline pyrazole anilide]", "values": [{"measurement": "Dose proportionality of PK", "setting": "[1]; across the dose range evaluated (15–600 mg)", "result": "broadly dose-proportional"}, {"measurement": "Urine samples with AZD2811 concentrations below the limit of quantification", "setting": "[1]; first four cohorts", "result": "> 80", "unit": "%"}, {"measurement": "Duration of AZD2811 blood exposure", "setting": "[1]; following a 2-h infusion on Day 1", "result": "sustained for several days"}, {"measurement": "End of gradual monophasic decline in concentration post-infusion", "setting": "[1]; following a 2-h infusion on Day 1, second and third phase 96 and 264 h post-dose", "result": "approximately 96 h"}, {"measurement": "Cmax", "setting": "[1]; in vivo, Cohort 8: 200 mg, Day 1, 21-day cycles, optional G-CSF, N = 3", "result": 41400, "unit": "ng/mL"}, {"measurement": "AUC(0-t)", "setting": "[1]; [3]", "result": 362, "unit": "µg·h/mL"}, {"measurement": "Cmax", "setting": "[1]; [3]", "result": 3900, "unit": "ng/mL"}, {"measurement": "Tmax", "setting": "[1]; [3]", "result": 77, "unit": "h"}, {"measurement": "AUC(0-t)", "setting": "[1]; [4]", "result": 658, "unit": "µg·h/mL"}, {"measurement": "Cmax", "setting": "[1]; [4]", "result": 6700, "unit": "ng/mL"}, {"measurement": "Tmax", "setting": "[1]; [4]", "result": 75, "unit": "h"}, {"measurement": "AUC(0-t)", "setting": "[1]; [5]", "result": 917, "unit": "µg·h/mL"}, {"measurement": "Cmax", "setting": "[1]; [5]", "result": 8900, "unit": "ng/mL"}, {"measurement": "Tmax", "setting": "[1]; [5]", "result": 75, "unit": "h"}, {"measurement": "AUC(0-t)", "setting": "[1]; [6]", "result": 1420, "unit": "µg·h/mL"}, {"measurement": "Cmax", "setting": "[1]; [6]", "result": 14500, "unit": "ng/mL"}, {"measurement": "Tmax", "setting": "[1]; [6]", "result": 78, "unit": "h"}, {"measurement": "AUC(0-t)", "setting": "[1]; [7]", "result": 3670, "unit": "µg·h/mL"}, {"measurement": "Cmax", "setting": "[1]; [7]", "result": 36800, "unit": "ng/mL"}, {"measurement": "Tmax", "setting": "[1]; [7]", "result": 78, "unit": "h"}, {"measurement": "AUC(0-t)", "setting": "[1]; intravenous, 200 mg, Cohort 6: 200 mg, Days 1 and 4, 28-day cycles, no G-CSF, N = 8", "result": 6220, "unit": "µg·h/mL"}, {"measurement": "AUC(0-t)", "setting": "[1]; intravenous, 200 mg, Cohort 7: 200 mg, Day 1, 28-day cycles, optional G-CSF, N = 3", "result": 3020, "unit": "µg·h/mL"}, {"measurement": "AUC(0-t)", "setting": "[1]; [8]", "result": 2750, "unit": "µg·h/mL"}, {"measurement": "Cmax", "setting": "[1]; [9]", "result": 58300, "unit": "ng/mL"}, {"measurement": "Tmax", "setting": "[1]; [9]", "result": 74, "unit": "h"}, {"measurement": "Cmax", "setting": "[1]; [10]", "result": 43400, "unit": "ng/mL"}, {"measurement": "Tmax", "setting": "[1]; [10]", "result": 2, "unit": "h"}, {"measurement": "Tmax", "setting": "[1]; [8]", "result": 4, "unit": "h"}, {"measurement": "AUC(0-t)", "setting": "[1]; [11]", "result": 5440, "unit": "µg·h/mL"}, {"measurement": "Cmax", "setting": "[1]; [11]", "result": 87300, "unit": "ng/mL"}, {"measurement": "Tmax", "setting": "[1]; [11]", "result": 3, "unit": "h"}, {"measurement": "AUC(0-t)", "setting": "[1]; intravenous, 500 mg, Cohort 12: 500 mg, Day 1, 21-day cycles, mandatory G-CSF, N = 5", "result": 7840, "unit": "µg·h/mL"}, {"measurement": "Cmax", "setting": "[1]; [12]", "result": 93900, "unit": "ng/mL"}, {"measurement": "Tmax", "setting": "[1]; [12]", "result": 6, "unit": "h"}, {"measurement": "AUC(0-t)", "setting": "[1]; [13]", "result": 11600, "unit": "µg·h/mL"}, {"measurement": "Cmax", "setting": "[1]; [13]", "result": 138000, "unit": "ng/mL"}, {"measurement": "Tmax", "setting": "[1]; [13]", "result": 6, "unit": "h"}, {"measurement": "Maximum amount excreted into urine as part of the dose", "setting": "[1]; [14]", "result": "< 1 % of the dose"}, {"measurement": "Maximum amount of unchanged AZD2811 excreted into urine", "setting": "[1]; [14]", "result": 294.40, "unit": "µg"}, {"measurement": "Duration of SD", "setting": "advanced solid tumours; 1 patient with cancer of pancreaticobiliary origin in Cohort 8", "result": 66, "unit": "weeks"}, {"measurement": "Treatment discontinuation due to progressive disease", "setting": "advanced solid tumours; Cohorts 1–6", "result": 83.3, "unit": "%"}, {"measurement": "Treatment discontinuation due to progressive disease", "setting": "advanced solid tumours; Cohorts 7–12", "result": 81.5, "unit": "%"}, {"measurement": "Best overall response: Not evaluable", "setting": "advanced solid tumours; Total (N = 51)", "result": "5 (9.8) n (%)"}, {"measurement": "Best overall response: Not evaluable, Incomplete post-baseline assessments", "setting": "advanced solid tumours; Total (N = 51)", "result": "4 (7.8) n (%)"}, {"measurement": "Best overall response: Not evaluable, Stable disease <2 cycles", "setting": "advanced solid tumours; Total (N = 51)", "result": "1 (2.0) n (%)"}, {"measurement": "Best overall response: Progressive disease", "setting": "advanced solid tumours; Total (N = 51)", "result": "22 (43.1) n (%)"}, {"measurement": "Best overall response: Progressive disease, Death", "setting": "advanced solid tumours; Total (N = 51)", "result": "3 (5.9) n (%)"}, {"measurement": "Best overall response: Progressive disease, RECIST progression", "setting": "advanced solid tumours; Total (N = 51)", "result": "19 (37.3) n (%)"}, {"measurement": "Best overall response: Stable disease ≥2 cycles", "setting": "advanced solid tumours; Total (N = 51), two cycles = 56 days in 28-day cycles, 42 days in 21-day cycles", "result": "23 (45.1) n (%)"}, {"measurement": "Complete responses (CRs)", "setting": "advanced solid tumours; all cohorts", "result": "no CRs"}, {"measurement": "Best overall response: partial response, patients", "setting": "advanced solid tumours; all cohorts, n = 1 of 51", "result": 2.0, "unit": "%"}, {"measurement": "Best overall response: Partial response", "setting": "advanced solid tumours; evaluable-for-efficacy analysis set, Total (N = 51), all cohorts", "result": "1 (2.0) n (%)"}, {"measurement": "Longest duration of therapy", "setting": "advanced solid tumours; patient with adenocarcinoma of the breast in Cohort 7, best overall response SD", "result": "> 17", "unit": "months"}, {"measurement": "Reduction from baseline in sum of target lesion diameters", "setting": "advanced solid tumours; patient with prostate cancer in Cohort 6 with a PR", "result": 80, "unit": "%"}, {"measurement": "Efficacy and toxicity compared with barasertib", "setting": "[2]", "result": "greater efficacy and less toxicity"}]}]}
